Results on three compounds are retold here after patent publication US20170202818A1, “METHODS AND COMPOSITIONS TO MODIFY GSK-3 ACTIVITY” (Ohio University, priority 2014, published 2017).

Each structure is given as a SMILES string. Where two headings read alike, the source gives them in different places.

Experiment [1] relates to RAW 264.7 murine macrophages. Kind of experiment: western blotting of β-catenin and GSK-3 in RAW 264.7 macrophages. The note with it: for expression of β-catenin protein: RAW 264.7, 0.5-25 μM, 5 hours; for expression of GSK-3: RAW 264.7, higher concentrations, e.g., 10 μM and 25 μM. The experiment is classed as cell-based. The procedure:
(§1) To test the ability of COB-187 and COB-152 to increase β-catenin levels, RAW 264.7 macrophages and PMA differentiated THP-1 cells were treated with COB-152 or COB 187 at different concentrations or 0.1% (v/v) DMSO solvent for 5 hours. Following treatment, protein was extracted and probed for β-catenin and total GSK-3 via western blotting.
(§2) More specifically, RAW 264.7 cells and PMA differentiated THP-1 cells were treated with varying concentrations of COB-187 or COB-152 dissolved in culture media containing 0.1% (v/v) dimethylsulfoxide (i.e., DMSO) solvent or with 0.1% (v/v) DMSO alone for 5 or 24 hours. After incubation, […] protein was extracted from the cells and quantified. More specifically, culture supernatant was collected and store at −80° C. until further use. The cells were lysed in 10 mM Tris HCl at pH 7.5, 150 mM NaCl, and 1% nonyl phenoxypolyethoxylethanol-40, containing a cocktail of protease inhibitors (Roche, Mannheim, Germany). Insoluble material was pelleted and the supernatant containing total protein as well as the culture supernatant was quantified using a Micro BCA protein kit. […] of protein was then resolved onto a denaturing gel, transferred to a nitrocellulose membrane, and immunoblotted with antibodies against GSK-3 and β-catenin. Signals were detected using the Li-Cor Odyssey Infrared Imaging System (Lincoln, Nebr.). Membranes were stripped and reprobed with primary antibody for β-actin as a loading control. All experiments were performed at least thrice in both RAW 264.7 and PMA differentiated THP-1 cells, and in duplicates.

Experiment [2] deals with PMA differentiated THP-1 cells. Kind of experiment: western blotting of β-catenin and GSK-3 in PMA differentiated THP-1 cells. The experiment is classed as cell-based, human. As to conditions: for expression of β-catenin protein: PMA differentiated THP-1, 0.5-25 μM, 5 hours; for expression of GSK-3: PMA differentiated THP-1, higher concentrations, e.g., 10 μM and 25 μM. How it is done: RAW 264.7 cells were cultured in RPMI 1640 medium supplemented with 10% FBS and 0.5% penicillin-streptomycin stabilized solution. THP-1 cells were cultured and differentiated into macrophages using phorbol 12-myristate 13-acetate (i.e., PMA). More specifically, THP-1 cells were cultured in RPMI-1640 10% FBS supplemented with 0.05 mM 2-mercaptoethanol. For differentiation to a macrophage phenotype, THP-1 cells were stimulated with PMA (50 ng/mL) for 24 hours. Differentiated THP-1 cells were washed with fresh media twice before incubation for 24 more hours at 37° C., 5% CO2 in a humidified incubator. The monolayer was then treated with ox-LDL or native LDL (both at either 50 or 100 μg/mL) and LPS (10 ng/mL) for 4 hours. Undifferentiated THP-1 cells were cultured and treated under similar conditions were used as a control.
as §1, §2
(A western blot detects proteins with antibodies after separation by electrophoresis.)

In experiment [3] the test system is RAW 264.7 murine macrophages. Kind of experiment: quantitative RT-PCR of β-catenin mRNA in RAW 264.7 cells. The experiment is classed as cell-based. The note with it: RAW 264.7, 4, 20 or 40 μM, 5 hours. How it is done: RAW 264.7 cells were treated with varying concentrations of COB-187, COB-152 or 0.1% (v/v) DMSO solvent alone for 5 or 24 hours. Following treatment, RNA was extracted from the cells and reverse transcribed. More specifically, total RNA was isolated using RNeasy plus mini kit according to the manufacturer's protocol and quantified using a Nanodrop 2000C Spectrophotometer. First-strand cDNA was synthesized from total RNA using cDNA Reverse Transcription Kit according to the manufacturer's protocol. Quantitative RT-PCR was performed using Taqman Gene Expression Assay (Life Technologies, Waltham, Mass.) and mouse primers for GAPDH and β-catenin. Relative gene expression was determined by normalizing with GAPDH using the comparative Ct method. All experiments were performed at least thrice in duplicates.

In experiment [4] the test system is LPS induced RAW macrophages. Kind of experiment: LPS-induced IL-6 mRNA in RAW 264.7 macrophages. The class given is cell-based. As to conditions: LPS stimulated murine macrophages, 0.1, 1 or 10 μM. The procedure:
RAW 264.7 were stimulated with either LPS (10 ng/mL) alone, or in combination with COB-152, COB-187 or 0.1% DMSO solvent for 5 hours. Following incubation, RNA was extracted from the cells. Quantitative RT-PCR was used to quantify expression of mRNA.

The subject of experiment [5] is PMA differentiated THP-1 human macrophages stimulated with Aβ(1-42) peptides. Kind of experiment: Aβ(1-42)-induced inflammatory cytokines in human macrophages (RT-PCR, ELISA). The experiment is classed as cell-based. The note with it: Aβ(1-42) 10 μM, 5 hours; for concentration at which IL-1β protein production was decreased: ELISA; for IFN-β mRNA expression / IL-1α mRNA expression: dose-dependent. The procedure: (§3) THP-1 cells were differentiated using PMA (50 ng/mL) as previously described and stimulated with either LPS (10 ng/mL) or […] human Aβ(1-42) peptides alone, or in combination with COB-152, COB-187 or 0.1% DMSO solvent for 5 hours. Following incubation, the supernatant was collected and stored at −80° C. until assayed for IL-6, TNF-α, and IL-1β protein by ELISA, whereas RNA extracted from the cells was reverse transcribed and subjected to quantitative RT-PCR for quantification of IL-6, TNF-α, IL-1α, IL-1, and IFN-β mRNA. All experiments were performed at least thrice and in duplicates.
(§4) RNA extracted from differentiated THP-1 cells treated as previously described was reverse transcribed to cDNA and subjected to quantitative RT-PCR. Relative IL-6, TNF-α, IL-1α, IL-1, and IFN-β gene expression was determined by normalizing with Hprt1 using the comparative Ct method. Commercially available cytokine ELISA kits (BD Biosciences, Burlington, N.C.) were used to quantify the levels of secreted IL-6, TNF-α, and IL-1 protein in the supernatant obtained from differentiated THP-1 cells treated with either LPS (10 ng/mL) or 10 μM human Aβ(1-42) peptides alone, or in combination with COB-152, COB-187 or 0.1% DMSO solvent. The ELISA was performed according to the manufacturer's protocol. The supernatant was diluted with the assay diluent at different ratios as shown in the TABLE 4 below for IL-6, TNF-α, and IL-1β. All samples were tested in duplicates and the results were expressed as Mean±SD of the cytokine concentration (pg/mL). All results presented were corrected for dilution factor.
In general terms: ELISA stands for enzyme-linked immunosorbent assay.

Experiment [6] deals with PMA differentiated THP-1 human macrophages stimulated with LPS. Kind of experiment: LPS-induced inflammatory cytokines in human macrophages (RT-PCR, ELISA). The note with it: LPS 10 ng/mL, 5 hours. The class given is cell-based. How it is done: as §3, §4
In experiment [7] the test system is non-GSK-3 kinases. Kind of experiment: kinase screen, non-GSK-3 kinases. The note with it: COB-152 at 2 μM; COB-187 at 1 μM; FIG. 3.
The conditions of experiment [8]: cited from earlier work.
The conditions of experiment [9]: Alzheimer's disease, Phase IIb; cited from earlier work.
For experiment [10], the system named is GSK-3α and GSK-3β. Kind of experiment: kinase screen, GSK-3. As to conditions: COB-152 at 2 μM; COB-187 at 1 μM; FIG. 3.
Experiment [11] concerns the target GSK-3α (Homo sapiens, UniProt P49840). Kind of experiment: fluorescence-based molecular assay of GSK-3α activity. As to conditions: 60 minutes at room temperature, Ser/Thr substrate and ATP.
Text: (§5) Subsequently, the solution was developed and the fluorescence was read to infer the activity of the protein.
Experiment [12] addresses GSK-3β (Homo sapiens, UniProt P49841). Kind of experiment: fluorescence-based molecular assay of GSK-3β activity. As to conditions: 60 minutes at room temperature, Ser/Thr substrate and ATP.
Text: as §5

GSK-3β, sequence (P49841 whole entry, species assumed): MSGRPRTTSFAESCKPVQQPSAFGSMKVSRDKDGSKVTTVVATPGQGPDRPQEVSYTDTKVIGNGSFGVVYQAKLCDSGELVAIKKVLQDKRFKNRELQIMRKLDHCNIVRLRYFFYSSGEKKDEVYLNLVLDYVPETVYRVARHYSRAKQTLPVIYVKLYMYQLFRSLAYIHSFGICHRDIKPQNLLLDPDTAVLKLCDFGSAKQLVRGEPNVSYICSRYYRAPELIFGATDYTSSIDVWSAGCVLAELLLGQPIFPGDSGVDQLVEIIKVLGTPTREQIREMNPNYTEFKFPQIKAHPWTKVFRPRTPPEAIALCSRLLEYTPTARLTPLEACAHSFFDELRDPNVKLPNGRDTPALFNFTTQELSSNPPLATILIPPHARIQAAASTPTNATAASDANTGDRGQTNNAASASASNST
GSK-3α, sequence (P49840 whole entry, species assumed): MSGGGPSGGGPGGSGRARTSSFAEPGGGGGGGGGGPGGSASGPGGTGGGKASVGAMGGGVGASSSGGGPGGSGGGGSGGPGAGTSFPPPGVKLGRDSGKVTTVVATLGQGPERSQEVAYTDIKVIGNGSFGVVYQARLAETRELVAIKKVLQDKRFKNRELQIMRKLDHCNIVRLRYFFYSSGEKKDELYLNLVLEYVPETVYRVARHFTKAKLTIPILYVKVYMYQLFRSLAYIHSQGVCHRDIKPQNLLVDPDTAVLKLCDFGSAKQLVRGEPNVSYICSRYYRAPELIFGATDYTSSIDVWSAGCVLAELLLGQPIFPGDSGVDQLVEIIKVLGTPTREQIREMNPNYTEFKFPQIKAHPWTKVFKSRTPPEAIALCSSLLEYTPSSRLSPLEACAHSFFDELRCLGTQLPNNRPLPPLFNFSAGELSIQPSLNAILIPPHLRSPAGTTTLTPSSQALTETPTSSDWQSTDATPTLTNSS

On to `OC1(c2ccccc2)CSC(=S)N1Cc1cccnc1` (stereo not shown) [COB-152], for which, in [1], the “expression of β-catenin protein” value is “increased in a dose-dependent manner” and the “expression of GSK-3” value is recorded as “may also be affected”. In addition, in [2], the “expression of β-catenin protein” value is “increased expression” and the “expression of GSK-3” value is on record as “may also be affected”. The “expression of β-catenin mRNA” value in experiment [3] is given as “did not alter”. In addition, the “IL-6 mRNA production” value in experiment [4] is reported as “dose dependently inhibited”. Besides, in experiment [5], the “IL-6 production (mRNA and protein)” value is reported as “dose-dependent decrease”; the “TNF-α production (mRNA and protein)” value is “dose-dependent decrease”; the concentration at which IL-1β protein production was decreased was at least 25 µM; the “IFN-β mRNA expression” value was “inhibited”. In experiment [5], the “IL-1α mRNA expression” value is “inhibited”. In [6], the “IL-1α mRNA expression” value is “inhibited”; the “IL-6 production (mRNA and protein)” value is on record as “dose-dependent decrease”; the “TNF-α production (mRNA and protein)” value was “dose-dependent decrease”. Moreover, in experiment [6] (ELISA), the concentration at which IL-1β protein production was decreased was at least 50 µM. Further, in experiment [7], the “effect on non-GSK-3 kinases, such as the cyclin dependent protein kinases” value is recorded as “little effect”.

For the compound `O=c1sn(-c2cccc3ccccc23)c(=O)n1Cc1ccccc1` [tideglusib], the “progression of global cerebral atrophy compared to placebo” value in [8] (analysis of a sub-set of patients) is reported as “reduced progression of global cerebral atrophy”. Moreover, the primary endpoint entry in experiment [8] (progressive supranuclear palsy, phase II) is reported as “did not meet is primary endpoint”; in [9], “primary endpoint was not achieved”.

In the case of `OC1(c2ccccc2)CSC(=S)N1Cc1ccncc1` (stereo not shown) [COB-187], in experiment [1], the “expression of β-catenin protein” value is listed as “increased in a dose-dependent manner” and the “expression of GSK-3” value is recorded as “may also be affected”. Besides, in [2], the “expression of β-catenin protein” value is recorded as “increased expression” and the “expression of GSK-3” value is given as “may also be affected”. The “expression of β-catenin mRNA” value in [3] was “did not alter”. Moreover, in experiment [5], the “IL-6 production (mRNA and protein)” value is recorded as “dose-dependent decrease”; the “TNF-α production (mRNA and protein)” value is reported as “dose-dependent decrease”; the concentration at which IL-1β protein production was decreased was at least 10 µM; the “IFN-β mRNA expression” value was “inhibited”. Also, the “IL-1α mRNA expression” value in experiment [5] is given as “inhibited”. Moreover, in experiment [6], the “IL-1α mRNA expression” value is “inhibited”; the “IL-6 production (mRNA and protein)” value is “dose-dependent decrease”; the “TNF-α production (mRNA and protein)” value is recorded as “dose-dependent decrease”. Besides, in [6] (ELISA), the IL-1β protein production entry is “dose-dependent decrease”. The “activity of GSK-3α/β in kinase screen” value in experiment [10] was “inhibit”. Besides, the “effect on non-GSK-3 kinases, such as the cyclin dependent protein kinases” value in [7] was “little effect”. Also, the “IC50, inhibition of GSK-3α activity” value in experiment [11] is reported as “nanomolar range”. Moreover, the “IC50, inhibition of GSK-3β activity” value in experiment [12] was “nanomolar range”.
